Laboratory results taken from US20020165267A1 (priority 2001, published 2002).

Columns and labels:
[1] = system: B. mycoides, B. thuringiensis, and B. subtilis; assay type: cell-based
[2] = system: Bacillus thuringiensis ATCC55055; Bacillus subtilis 1270; assay: Agar diffusion test, clear zones of growth inhibition around wells; assay type: cell-based; details: Phloxine B 100 μg/ml; 50 μl per well; 37° C., 16 hours
Method: Sensitivity of bacteria to the commercially available Phloxine B measured by agar diffusion test. Principle of this microbiological assay: The bacteria were grown on Brain Heart Infusion (BHI) broth. Growth was analyzed by measuring turbidity with a spectrophotometer. During the logarithmic phase (OD of 0 3 at 600 nm), 200 μl of the bacterial culture was spread over the surface of an agar plate with a bent glass rod. Fifty μl of various concentrations of Phloxine B (200, 100, 50, 25, and 12.5 μg/ml diluted in the BHI broth) were added to the wells. The plate was then transferred to an incubator at 37° C. the appearance of clear zones around the wells after 16 hours, indicating inhibition of bacterial growth, was noted.

[3] = humans; set by the FDA; cited from earlier work

For “2′,4′,5′,7′-tetrachlorofluorecein disodium salt [Phloxine B]”, the “reduction of the number of Colony-Forming Units” value ([1]; 100 μg/ml, printed also as factor of 100) was “more than two logs”, the “inhibition of bacterial growth” value ([1]; 100, 75, 50, 25 μg/ml added in logarithmic growth phase, BHI broth) was “dose-dependent manner” and the “antibiotic activity on bacteria” value ([1]; B. mycoides, B. thuringiensis, B. subtilis) was “very good antibiotic activity”. The “decrease of bacterial count” value ([1]; dye added at 100 μg/ml, in minutes) was 3 logs, the “size of clear zones compared with chloramphenicol” value [2] was “half the inhibition zones observed with chloramphenicol at 200 μg/ml” and the “acceptable daily intake (ADI)” value [3] was 1.25 mg/kg.
